# Measured values taken from patent US6350812B1, “Hydrogels containing triblock copolymers, and preparation and use thereof” (Centre National de la Recherche Scientifique (CNRS), priority 1995, dated 2002).
# Legend:
# [1] = as described for the commercial colorant; cited from earlier work
# [2] = Incorporation and retention of a hydrophobic substance in the hydrogel on addition of water and washing with water; assay type: physicochemical; details: acetone solution, water added
# Experimental: 1 g of copolymer of Example 1.3 and 5 mg of commercial colorant Yellow OB are dissolved in 2 cm^3 of acetone.
# This is a very hydrophobic, water-insoluble colorant. Distilled water (4 cm^3) is gradually added. A gel is obtained which occupies virtually all the volume of the starting acetone solution.
# Hydrogels in which progesterone is incorporated were prepared in an analogous way. […] When administered by subcutaneous injection, the gel constitutes a bioresorbable soft implant which gradually releases the progesterone.
structure (smiles),measurement,setting,value
Cc1ccccc1N=Nc1c(N)ccc2ccccc12 [Yellow OB],solubility of the colorant in water,[1],water-insoluble
same,crystallisation / precipitation of the hydrophobic substance on addition of water or washing,[2],the colorant crystallizes during the addition of water
